From patent US8703812B2, “Protein synthesis required for long-term memory is induced by PKC activation on days preceding associative learning” (Blanchette Rockefeller Neurosciences Institute, priority 2005, dated 2014)

Assays:
Hermissenda Crassicornis = experiment: Pavlovian conditioning of Hermissenda (retention of conditioned response); type: in vivo; settings: for effect on bryostatin memory enhancement: 6 TE with bryostatin; for effect on long-term retention: anisomycin 1 μg/ml for four hours post-training (2 TE) after three-day bryostatin treatment
Method: Bryostatin exposure—Specimens of Hermissenda Crassicornis were maintained in artificial sea water (ASW) at 15° for three days in perforated 50-ml conical centrifuge tubes before starting experiments. Bryostatin, purified from the marine bryozoan Bugula neritina, was dissolved in EtOH and diluted to its final concentration in ASW. […] For selected experiments lactacysteine (10 μM) or anisomycin was added to the ASW.
Bryostatin effects on Hermissenda behavior and biochemistry were produced by adding the drug to the bathing medium within an 8 cm long, 1 cm diameter test tube housing each individual animal.
Pavlovian conditioning of Hermissenda involves repeated pairings of a neutral stimulus, light, with an unconditioned stimulus, orbital shaking. (See, Lederhendler et al. (24) and Epstein et al. (6)). A rotation/shaking stimulus excites the statocyst hair cells and thereby elicits an unconditioned response: a brisk contraction of the muscular undersurface called a foot, accompanied by adherence or “clinging” to the surface that supports the foot. Before conditioning, light elicits a weakly positive phototaxis accompanied by lengthening of the foot. After sufficient light-rotation pairings, light no longer elicits phototaxis, but instead elicits a new response (24): the “clinging” and foot shortening previously elicited only by the unconditional stimulus (FIG. 1). Thus, the meaning of the unconditioned stimulus, rotation or orbital shaking, has been transferred to the conditioned stimulus and is manifested by a light-elicited foot contraction—a negative change of foot length. This conditioned response to light can last for weeks, is not produced by randomized light and rotation, is stimulus-specific, and shares the other defining characteristics of mammalian Pavlovian Conditioning.
Pavlovian conditioning of Hermissenda has well-defined training parameters that produce progressively longer-lasting retention of the learned conditioned response. Two training events (2 TE) of paired light and orbital shaking (see “Methods”), for example, induce a learned conditioned response (light-elicited foot contraction or shortening) that persists without drug treatment for approximately 7 minutes. Four to six training events (4-6 TE) induce a conditioned response that persists up to several hours, but disappears approximately by 1 day after training. Nine TE produces long-term associative memory lasting many days and often up to two weeks.

PKC-α = settings: 20 μM-5 QμM Lactacysteine; cited from earlier work
sAPP secretion = settings: cited from earlier work
calexcitin = experiment: Calexcitin immunostaining in B-photoreceptors; type: in vivo, Hermissenda
Method: Following experimental treatments and testing, animals were rapidly decapitated, the central nervous systems (CNS) removed and then fixed in 4% para-formaldehyde in 20 mM Tris-buffered (pH 8) natural seawater (NSW; 0.2 μm micropore-filtered). The CNSs were then embedded in polyester wax (20), sectioned (6 μm) and immunostained using a biotinylated secondary antibody coupled to avidin-bound microperoxidase (ABC method, Vector), Aminoethylcarbazole (AEC) was used as the chromogen. The primary polyclonal antibody (designated 25U2) was raised in rabbits from the full length calexcitin protein extracted from squid optic lobes. Gray-scale intensity measures were done from digital photomicrographs on circumscribed cytoplasmic areas of the B-photoreceptors minus the same background area (non-staining neuropile).

PKC = experiment: Protein kinase C assay (histone phosphorylation) in Hermissenda nervous systems; type: in vivo; settings: anisomycin (1.0 ng/ml) with each bryostatin (0.25 ng/ml) exposure on three successive days
Method: Bryostatin exposure—Specimens of Hermissenda Crassicornis were maintained in artificial sea water (ASW) at 15° for three days in perforated 50-ml conical centrifuge tubes before starting experiments. Bryostatin, purified from the marine bryozoan Bugula neritina, was dissolved in EtOH and diluted to its final concentration in ASW. Animals were incubated with bryostatin in ASW for 4 hr, then rinsed with normal ASW. For selected experiments lactacysteine (10 μM) or anisomycin was added to the ASW.
Cells were homogenized by sonication (5 sec, 25 W) in 100 μl of 10 mM Tris-HCl pH 7.4 buffer containing 1 mM EGTA, 1 mM PMSF, and 50 mM NaF. Homogenate was transferred to a polyallomer centrifuge tube and was centrifuged at 100,000×g for 10 min at 4°. The supernatant was removed and immediately frozen on dry ice. The particulate fraction was resuspended by sonication in 100 μl of the same buffer and stored at −80°. To measure PKC, 10 μl of cytosol or particulate fraction was incubated for 15 min at 37° in the presence of 10 μM histones, 4.89 mM CaCl2, 1.2 μg/μl phosphatidyl-L-serine, 0.18 μg/μl 1,2-dioctanoyl-sn-glycerol, 10 mM MgCl2, 20 mM HEPES (pH 7.4), 0-8 mM EDTA, 4 mM EGTA, 4% glycerol, 8 μg/ml aprotinin, 8 μg/ml leupeptin, and 2 mM benzamidine. 0.5 μCi [γ^32P]ATP was added and ^32P-phosphoprotein formation was measured by adsorption onto phosphocellulose as described previously (25). This assay was used with slight adjustments for either Hermissenda nervous system homogenates or cultured mammalian neuron homogenates
Intact Hermissenda were exposed for 4 hour intervals to bryostatin (0.28 nM) on successive days under conditions described (“Behavioral Pharmacology”). Histone phosphorylation (See “Methods”) in isolated circumesophageal nervous systems was then measured in the cytosol fraction. […] (FIG. 12, 13). […] After an initial activation (via translocation), this bryostatin effect is most likely due to increased synthesis of PKC, consistent with the increased levels of calexcitin induced by bryostatin, but not directly correlated with repeated bryostatin exposure.

[1] = test system: diacylglycerol-protein kinase C activation; settings: aorta of diabetic rats; cultured rat smooth muscle cells, elevated glucose; cited from earlier work
[2] = vitamin E 2000 IU/day; cited from earlier work
[3] = test system: Rat hippocampal H19-7/IGF-IR cells; experiment: Protein synthesis by [35S]Methionine incorporation; type: cell-based; settings: PKC inhibitor Ro-32 also present
Method: FIG. 17 depicts the effects of bryostatin on protein synthesis. Rat IGF-IR cells were incubated for 30 minutes with 0.28 nM bryostatin for incubation times ranging from 1 to 79 hours. [^35S]Methionine (9.1 μCi) was then added to the medium followed by analysis of radiolabel.
Rat hippocampal H19-7/IGF-IR cells (ATCC) were plated onto poly-L-lysine coated plates and grown at 35° in DMEM/10% FCS for several days until approx. 50% coverage was obtained. The cells were then induced to differentiate into a neuronal phenotype by replacing the medium with 5 ml N2 medium containing 10 ng/ml basic fibroblast growth factor and grown in T-25 flasks at 39° C. (26). Various concentrations of bryostatin (0.01-1.0 nM) were then added in 10 μl aqueous solution. After a specified interval, the medium was removed and the cells were washed with PBS, removed by gentle scraping, and collected by centrifugation at 1000 rpm for 5 min.
In fact, we found here that a single 30-minute exposure to 0.28 nM bryostatin increased overall protein synthesis (FIG. 17), measured by incorporation of ^35-S Methionine in the last ½ hour before collecting the neurons, by 20% within 24 h, increasing to 60% by 79 hours after the bryostatin exposure.

For CC(=O)N[C@@H](CSC(=O)[C@]1([C@@H](O)C(C)C)NC(=O)[C@H](C)[C@@H]1O)C(=O)O [Lactacysteine], the “acquisition or retention of behavioral training” value (Hermissenda Crassicornis; lactacysteine only 10 μM 4 h, 2-paired TEs 24 hrs later) is given as “no acquisition or retention of behavioral training”, the “duration of memory after single bryostatin exposure followed by 2 TE” value (Hermissenda Crassicornis; with lactacysteine) is given as “many days” and the “degradation of PKC-α” value (PKC-α) is given as “largely prevented”.
For benzolactam, the sAPP secretion (sAPP secretion; benzolactam-treated cells) is given as “enhance sAPP secretion over basal levels” and the “concentration giving significant increases of sAPP secretion” value (sAPP secretion; control fibroblasts) is given as 10 µM.
For CN[C@@H]1C[C@H]2O[C@@](C)([C@@H]1OC)n1c3ccccc3c3c4c(c5c6ccccc6n2c5c31)C(=O)NC4 [staurosporine], the “effect on benzolactam-induced sAPP secretion” value (sAPP secretion; control and AD fibroblasts) is listed as “eliminated the effects of benzolactam”.
For COc1ccc(C[C@H]2NC[C@H](O)[C@H]2OC(C)=O)cc1 [anisomycin], the “effect on calexcitin level” value (calexcitin; anisomycin immediately after 2-paired TEs following 3 days of 4-hr bryostatin) was “did not reduce this calexcitin level”, the “effect on PKC activity, cytosolic and membrane fractions” value (PKC) was “markedly reduced the PKC activity” and the “effect on bryostatin memory enhancement” value (Hermissenda Crassicornis) was “blocked”. The “effect on memory retention produced by 9 TE” value (Hermissenda Crassicornis; 4 hour anisomycin treatment, no bryostatin) was “eliminated all memory retention”, the “effect on long-term retention” value (Hermissenda Crassicornis) was “did not prevent memory retention” and the “effect on long-term retention” value (Hermissenda Crassicornis; listed as Anisomycin) was “did not prevent long-term retention”. The “effect on retention produced by single 4-hour bryostatin plus 2 TE” value (Hermissenda Crassicornis; anisomycin 1.0 μg/ml immediately post-training, tested after 4 h) was “showed no CR”, the “effect on memory formation” value (Hermissenda Crassicornis; anisomycin after training with and without bryostatin) was “completely blocked memory formation” and the “effect on long-term memory” value (Hermissenda Crassicornis; anisomycin during training with and without bryostatin) was “did not prevent long-term memory”. For the same compound, the “effect on long-term memory” value (Hermissenda Crassicornis; anisomycin with each of three successive daily 4 hour bryostatin exposures, 2 TE one day after) was “long-term memory was eliminated”.
For vitamin E, the “diacylglycerol-protein kinase C activation” value [1] is given as “normalize diacylglycerol-protein kinase C activation” and the clinical outcome [2] is given as “reduced mortality and morbidity, but did not enhance cognitive abilities”.
With CN(C)C[C@H]1CCn2c(c(C3=C(c4cn(C)c5ccccc45)C(=O)NC3=O)c3ccccc32)C1 [Ro-32] the “effect on learning-specific calexcitin increases in Type B cell” value (calexcitin; Ro-32) was “prevented both learning and learning-specific calexcitin increases”, the “effect on bryostatin-induced increase of protein synthesis” value [3] was “partially blocked” and the “effect on bryostatin-induced increase of protein synthesis” value ([3]; listed as Ro-32-0432) was “increasing significantly less”. The “effect on bryostatin memory enhancement” value (Hermissenda Crassicornis) was “blocked”, the “effect on 6 TE plus bryostatin conditioning” value (Hermissenda Crassicornis; Ro-32 applied pre-training (during dark adaptation)) was “blocked” and the “effect on memory consolidation” value (Hermissenda Crassicornis; Ro-32 during the training plus bryostatin) was “did prevent memory consolidation”. The “effect on long-term memory induction” value (Hermissenda Crassicornis; Ro-32 immediately after bryostatin plus training) was “did not prevent long-term memory induction”.
